Test results taken from patent publication US20220388953A1, “COMPOUNDS WITH ANTIMICROBIAL ACTIVITY” (The Hong Kong Polytechnic University, priority 2018, published 2022).
In brackets after ≈: the same amount, converted by molar mass.

tested on: Streptococcus pneumoniae (Klein) Chester (ATCC 49619); experiment: Antimicrobial assay, broth microdilution (CLSI), MIC; type: cell-based; conditions: ATCC49619; Table 1; Streptococcus pneumoniae ATCC 49619; 20 h at 37° C.; read-out: MIC
Description: C3 derivatives were synthesized and antimicrobial activity measured against Streptococcus pneumoniae (MIC, minimum inhibitory concentration).
Bacterial Strains was used in this study is Streptococcus pneumoniae (Klein) Chester (ATCC® 49619™)
The antimicrobial activity of the compounds was determined by broth microdilution according to the Clinical & Laboratory Standards Institute (CLSI) guidelines. The test medium was cation-adjusted Mueller-Hinton broth (MH). Serial two-fold dilutions were performed for the tested chemicals starting from 256 μg/mL to 0.5 μg/mL, and the bacterial cell inoculum was adjusted to approximately 5×10^5 CFU/mL. Results were taken after 20 h of incubation at 37° C. The MIC was defined as the lowest concentration of antibiotic with no visible growth. Experiments were performed in duplicates.

| Compound | MIC [µg/mL] |
| --- | --- |
| NC1CCCCC1Nc1ccc(C(=O)c2ccccc2C(=O)O)cc1[N+](=O)[O-] (stereo not drawn) [C3-28, 2-(4-((2-Aminocyclohexyl)amino)-3-nitrobenzoyl)benzoic Acid] | 256 (≈ 668 µM) |

same assay, conditions: ATCC49619; Table 3; Streptococcus pneumoniae ATCC 49619; 20 h at 37° C.; read-out: MIC

| Compound | MIC [µg/mL] |
| --- | --- |
| Nc1ccccc1Sc1ccc(C2(O)c3ccccc3C(=O)N2Cc2ccccc2)cc1[N+](=O)[O-] (stereo not drawn) [C3-47] | > 256 |
| NC(=O)c1cccc(N2C(=O)c3ccccc3C2(O)c2ccc(Sc3ccccc3N)c([N+](=O)[O-])c2)c1 (stereo not drawn) [C3-42] | 32 (≈ 62.4 µM) |
| Nc1ccccc1Sc1ccc(C2(O)c3ccccc3C(=O)N2Cc2ccccc2F)cc1[N+](=O)[O-] (stereo not drawn) [C3-48] | > 256 |

same assay, conditions: Streptococcus pneumoniae, ATCC49619, 20 h

| Compound | MIC [µg/mL] |
| --- | --- |
| Nc1cccc(Sc2ccc(C(=O)c3ccccc3C(=O)O)cc2[N+](=O)[O-])c1 [C3-5, 2-(4-((3-Aminophenyl)thio)-3-nitrobenzoyl)benzoic Acid] | 64 (≈ 162 µM) |
| Nc1cc(Cl)ccc1Sc1ccc(C(=O)c2ccccc2C(=O)O)cc1[N+](=O)[O-] [C3-10, 2-(4-((2-Amino-4-chlorophenyl)thio)-3-nitrobenzoyl)benzoic Acid] | 64 (≈ 149 µM) |
| O=C(O)c1ccccc1C(=O)c1ccc(Sc2ccc(Cl)c(Cl)c2)c([N+](=O)[O-])c1 [C3-13, 2-(4-((3,4-Dichlorophenyl)thio)-3-nitrobenzoyl)benzoic Acid] | 8 (≈ 17.8 µM) |

tested on: not given; experiment: not given; conditions: not given

| Compound | melting point [°C] |
| --- | --- |
| O=C(Nc1ccccc1C(=O)O)c1ccc(Sc2ccc(Cl)c(Cl)c2)c([N+](=O)[O-])c1 [C3-077, 2-(4-((3,4-Dichlorophenyl)thio)-3-nitrobenzamido)benzoic Acid] | 279 to 281 |
| O=C(O)c1ccccc1C(=O)c1ccc(Nc2cccc(Cl)c2)c([N+](=O)[O-])c1 | 159 to 161 |
| Cc1ccc(C(=O)O)cc1NCc1ccc(Sc2ccc(Cl)c(Cl)c2)c([N+](=O)[O-])c1 [C3-075, 3-((4-((3,4-Dichlorophenyl)thio)-3-nitrobenzyl)amino)-4-methylbenzoic Acid] | 222 to 224 |
| Nc1cc(C(=O)c2ccccc2C(=O)O)ccc1Sc1ccc(Cl)c(Cl)c1 [C3-094, 2-(3-Amino-4-((3,4-dichlorophenyl)thio)benzoyl)benzoic Acid] | 188 to 190 |
| NC(=O)c1cccc(NCc2ccc(Sc3ccc(Cl)c(Cl)c3)c([N+](=O)[O-])c2)c1 [C3-066, 3-((4-((3,4-Dichlorophenyl)thio)-3-nitrobenzyl)amino)benzamide] | 158 to 160 |
| O=C(O)c1ccccc1C(=O)c1ccc(Sc2ccc(Cl)c(Cl)c2)cc1 [C3-083, 2-(4-((3,4-Dichlorophenyl)thio)benzoyl)benzoic Acid] | 164 to 166 |
| O=C(O)c1cc(NCc2ccc(Sc3ccc(Cl)c(Cl)c3)c([N+](=O)[O-])c2)ccc1Cl [C3-079, 2-Chloro-5-((4-((3,4-dichlorophenyl)thio)-3-nitrobenzyl)amino)benzoic Acid] | 148 to 150 |
| O=C(O)c1ccc(Br)c(NCc2ccc(Sc3ccc(Cl)c(Cl)c3)c([N+](=O)[O-])c2)c1 [C3-078, 4-Bromo-3-((4-((3,4-dichlorophenyl)thio)-3-nitrobenzyl)amino)benzoic Acid] | 231 to 233 |
| O=C(O)c1ccc(N2CCOCC2)c(NCc2ccc(Sc3ccc(Cl)c(Cl)c3)c([N+](=O)[O-])c2)c1 [C3-073, 3-((4-((3,4-Dichlorophenyl)thio)-3-nitrobenzyl)amino)-4-morpholinobenzoic Acid] | 147 to 149 |
| NS(=O)(=O)c1cccc(NCc2ccc(Sc3ccc(Cl)c(Cl)c3)c([N+](=O)[O-])c2)c1 [C3-074, 3-((4-((3,4-Dichlorophenyl)thio)-3-nitrobenzyl)amino)benzenesulfonamide] | 191 to 193 |
| O=C(O)c1cccc(NC(=O)c2ccc(Sc3ccc(Cl)c(Cl)c3)c([N+](=O)[O-])c2)c1 [C3-048, 3-(4-((3,4-Dichlorophenyl)thio)-3-nitrobenzamido)benzoic Acid] | 280 to 282 |
| O=C(O)c1cccc(NCc2ccc(Sc3ccc(Cl)c(Cl)c3)c([N+](=O)[O-])c2)c1 [C3-047, 3-((4-((3,4-Dichlorophenyl)thio)-3-nitrobenzyl)amino)benzoic Acid] | 224 to 226 |
| NC(=O)c1ccccc1NCc1ccc(Sc2ccc(Cl)c(Cl)c2)c([N+](=O)[O-])c1 [C3-090, 2-((4-((3,4-Dichlorophenyl)thio)-3-nitrobenzyl)amino)benzamide] | 184 to 186 |
| Nc1ccccc1Sc1ccc(C(=O)Nc2cccc(C(=O)O)c2)cc1[N+](=O)[O-] [C3-026, 3-(4-((2-Aminophenyl)thio)-3-nitrobenzamido)benzoic Acid] | 251 to 252 |

The next lines start with the values.

| melting point [°C] | Compound |
| --- | --- |
| 220 to 222 | O=C(O)c1ccc(Cl)cc1NCc1ccc(Sc2ccc(Cl)c(Cl)c2)c([N+](=O)[O-])c1 [C3-087, 4-Chloro-2-((4-((3,4-dichlorophenyl)thio)-3-nitrobenzyl)amino)benzoic Acid] |
| 247 to 249 | Nc1ccccc1Sc1ccc(C(=O)Nc2ccc(C(=O)O)cc2)cc1[N+](=O)[O-] [C3-056, 4-(4-((2-Aminophenyl)thio)-3-nitrobenzamido)benzoic Acid] |
| 144 to 146 | CN(C)c1cc(C(=O)c2ccccc2C(=O)O)ccc1Sc1ccc(Cl)c(Cl)c1 [C3-095, 2-(4-((3,4-Dichlorophenyl)thio)-3-(dimethylamino)benzoyl)benzoic Acid] |
| 173 to 175 | N#Cc1ccccc1NCc1ccc(Sc2ccc(Cl)c(Cl)c2)c([N+](=O)[O-])c1 [C3-091, 2-((4-((3,4-Dichlorophenyl)thio)-3-nitrobenzyl)amino)benzonitrile] |
| 204 to 206 | O=C(O)c1c(Cl)cccc1NCc1ccc(Sc2ccc(Cl)c(Cl)c2)c([N+](=O)[O-])c1 [C3-088, 2-Chloro-6-((4-((3,4-Dichlorophenyl)thio)-3-nitrobenzyl)amino)benzoic Acid] |
| 171 to 173 | O=C(O)c1ccccc1NCc1ccc(Sc2ccc(Cl)c(Cl)c2)c([N+](=O)[O-])c1 [C3-081, 2-((4-((3,4-Dichlorophenyl)thio)-3-nitrobenzyl)amino)benzoic Acid] |
| 105 to 107 | Nc1ccccc1Sc1ccc(CNc2cccc(C(=O)O)c2)cc1[N+](=O)[O-] [C3-027, 3-((4-((2-Aminophenyl)thio)-3-nitrobenzyl)amino)benzoic Acid] |
| 196 to 198 | O=C(O)c1ccc(Cl)c(NCc2ccc(Sc3ccc(Cl)c(Cl)c3)c([N+](=O)[O-])c2)c1 [C3-071, 4-Chloro-3-((4-((3,4-dichlorophenyl)thio)-3-nitrobenzyl)amino)benzoic Acid] |
| 118 to 120 | O=[N+]([O-])c1cc(CNc2cccc(CO)c2)ccc1Sc1ccc(Cl)c(Cl)c1 [C3-080, (3-((4-((3,4-Dichlorophenyl)thio)-3-nitrobenzyl)amino)phenyl)methanol] |
| 259 to 261 | Nc1ccccc1Sc1ccc(C(=O)Nc2ccccc2C(=O)O)cc1[N+](=O)[O-] [C3-057, 2-(4-((2-Aminophenyl)thio)-3-nitrobenzamido)benzoic Acid] |
| 237 to 239 | O=C(O)c1ccc(F)c(NCc2ccc(Sc3ccc(Cl)c(Cl)c3)c([N+](=O)[O-])c2)c1 [C3-082, 3-((4-((3,4-Dichlorophenyl)thio)-3-nitrobenzyl)amino)-4-fluorobenzoic Acid] |
| 201 to 203 | Nc1ccccc1Sc1ccc(CNc2ccccc2C(=O)O)cc1[N+](=O)[O-] [C3-065, 2-((4-((2-Aminophenyl)thio)-3-nitrobenzyl)amino)benzoic Acid] |
